Laboratory results taken from ChEMBL document CHEMBL5724914, “Linking interpersonal differences in gut microbiota composition and drug biotransformation activity” (2024).

Key:
[1] = The drug is tested on WLS-039 corresponding to human gut metagenome with ENA study accession number: PRJEB37062 and ENA sample accession number: ERS12561746 for biotransformation under anaerobic condition. The drug concentrations were measured over 9 timepoints collected between 0 and 24 hours of incubation by liquid-chromatography-coupled mass spectrometry (LC–MS); details: 2 µM
[2] = human gut metagenome, 24 h, 2 µM
[3] = human gut metagenome, 24 h, 2 µM; remark: listed apart in the source
[4] = The drug is tested on WLS-006 corresponding to human gut metagenome with ENA study accession number: PRJEB37062 and ENA sample accession number: ERS12561741 for biotransformation under anaerobic condition. The drug concentrations were measured over 9 timepoints collected between 0 and 24 hours of incubation by liquid-chromatography-coupled mass spectrometry (LC–MS); details: 2 µM
[5] = The drug is tested on Z-009 corresponding to pig gut metagenome with ENA study accession number: PRJEB37062 and ENA sample accession number: ERS12561809 for biotransformation under anaerobic condition. The drug concentrations were measured over 9 timepoints collected between 0 and 24 hours of incubation by liquid-chromatography-coupled mass spectrometry (LC–MS); details: 2 µM
[6] = The drug is tested on Z-004 corresponding to metagenome with ENA study accession number: PRJEB37062 and ENA sample accession number: ERS12561804 for biotransformation under anaerobic condition. The drug concentrations were measured over 9 timepoints collected between 0 and 24 hours of incubation by liquid-chromatography-coupled mass spectrometry (LC–MS); details: 2 µM
[7] = human gut metagenome, 24 h, 2 µM; remark: listed apart in the source
[8] = The drug is tested on Z-005 corresponding to metagenome with ENA study accession number: PRJEB37062 and ENA sample accession number: ERS12561805 for biotransformation under anaerobic condition. The drug concentrations were measured over 9 timepoints collected between 0 and 24 hours of incubation by liquid-chromatography-coupled mass spectrometry (LC–MS); details: 2 µM
[9] = The drug is tested on Z-026 corresponding to metagenome with ENA study accession number: PRJEB37062 and ENA sample accession number: ERS12561825 for biotransformation under anaerobic condition. The drug concentrations were measured over 9 timepoints collected between 0 and 24 hours of incubation by liquid-chromatography-coupled mass spectrometry (LC–MS); details: 2 µM
[10] = The drug is tested on Z-028 corresponding to mouse gut metagenome with ENA study accession number: PRJEB37062 and ENA sample accession number: ERS12561827 for biotransformation under anaerobic condition. The drug concentrations were measured over 9 timepoints collected between 0 and 24 hours of incubation by liquid-chromatography-coupled mass spectrometry (LC–MS); details: 2 µM
[11] = human gut metagenome, 24 h, 2 µM; remark: listed apart in the source
[12] = human gut metagenome, 24 h, 2 µM; remark: listed apart in the source
[13] = human gut metagenome, 24 h, 2 µM; remark: listed apart in the source
[14] = human gut metagenome, 24 h, 2 µM; remark: listed apart in the source
[15] = human gut metagenome, 24 h, 2 µM; remark: listed apart in the source
[16] = human gut metagenome, 24 h, 2 µM; remark: listed apart in the source
[17] = The drug is tested on Z-007 corresponding to rat gut metagenome with ENA study accession number: PRJEB37062 and ENA sample accession number: ERS12561807 for biotransformation under anaerobic condition. The drug concentrations were measured over 9 timepoints collected between 0 and 24 hours of incubation by liquid-chromatography-coupled mass spectrometry (LC–MS); details: 2 µM
[18] = The drug is tested on Z-017 corresponding to mouse gut metagenome with ENA study accession number: PRJEB37062 and ENA sample accession number: ERS12561816 for biotransformation under anaerobic condition. The drug concentrations were measured over 9 timepoints collected between 0 and 24 hours of incubation by liquid-chromatography-coupled mass spectrometry (LC–MS); details: 2 µM
[19] = The drug is tested on Z-030 corresponding to mouse gut metagenome with ENA study accession number: PRJEB37062 and ENA sample accession number: ERS12561829 for biotransformation under anaerobic condition. The drug concentrations were measured over 9 timepoints collected between 0 and 24 hours of incubation by liquid-chromatography-coupled mass spectrometry (LC–MS); details: 2 µM
[20] = The drug is tested on WLS-240 corresponding to human gut metagenome with ENA study accession number: PRJEB37062 and ENA sample accession number: ERS12561773 for biotransformation under anaerobic condition. The drug concentrations were measured over 9 timepoints collected between 0 and 24 hours of incubation by liquid-chromatography-coupled mass spectrometry (LC–MS); details: 2 µM
Further: call rule not given here.

Compound | Bacterial Biotransformation [1] | Bacterial Biotransformation [2] | Bacterial Biotransformation [3] | Bacterial Biotransformation [4] | Bacterial Biotransformation [5] | Bacterial Biotransformation [6] | Bacterial Biotransformation [7] | Bacterial Biotransformation [8] | Bacterial Biotransformation [9] | Bacterial Biotransformation [10] | Bacterial Biotransformation [11] | Bacterial Biotransformation [12] | Bacterial Biotransformation [13] | Bacterial Biotransformation [14] | Bacterial Biotransformation [15] | Bacterial Biotransformation [16] | Bacterial Biotransformation [17] | Bacterial Biotransformation [18] | Bacterial Biotransformation [19] | Bacterial Biotransformation [20]
OC(c1cc(C(F)(F)F)nc2c(C(F)(F)F)cccc12)C1CCCCN1 (stereo not given) [MEFLOQUINE] | Compound metabolized | Compound metabolized | Compound metabolized | Compound metabolized | Compound metabolized | Compound NOT metabolized | Compound NOT metabolized | Compound NOT metabolized | Compound metabolized | Compound NOT metabolized | Compound metabolized | Compound NOT metabolized | Compound metabolized | Compound metabolized | Compound metabolized | Compound metabolized | Compound NOT metabolized | Compound NOT metabolized | Compound NOT metabolized | Compound metabolized
CCN(CC)CCOC(=O)C1(C2CCCCC2)CCCCC1 [DICYCLOMINE] | Compound NOT metabolized | Compound NOT metabolized | Compound metabolized | Compound metabolized | Compound metabolized | Compound NOT metabolized | Compound metabolized | Compound NOT metabolized | Compound NOT metabolized | Compound NOT metabolized | Compound metabolized | Compound NOT metabolized | Compound metabolized | Compound metabolized | Compound metabolized | Compound metabolized | Compound NOT metabolized | Compound NOT metabolized | Compound NOT metabolized | Compound NOT metabolized
COC(=O)[C@H](c1ccccc1Cl)N1CCc2sccc2C1.O=S(=O)(O)O [CLOPIDOGREL BISULFATE] | Compound NOT metabolized | Compound metabolized | Compound metabolized | Compound metabolized | Compound metabolized | Compound metabolized | Compound metabolized | Compound metabolized | Compound metabolized | Compound NOT metabolized | Compound metabolized | Compound metabolized | Compound metabolized | Compound metabolized | Compound metabolized | Compound metabolized | Compound NOT metabolized | Compound metabolized | Compound NOT metabolized | Compound metabolized
COc1ccccc1OCCNCC(O)COc1cccc2[nH]c3ccccc3c12 (stereo not given) [CARVEDILOL] | Compound metabolized | Compound NOT metabolized | Compound metabolized | Compound metabolized | Compound NOT metabolized | Compound NOT metabolized | Compound metabolized | Compound NOT metabolized | Compound NOT metabolized | Compound NOT metabolized | Compound metabolized | Compound NOT metabolized | Compound metabolized | Compound metabolized | Compound NOT metabolized | Compound metabolized | Compound NOT metabolized | Compound NOT metabolized | Compound NOT metabolized | Compound metabolized
CC1Cc2ccccc2N1NC(=O)c1ccc(Cl)c(S(N)(=O)=O)c1 (stereo not given) [INDAPAMIDE] | Compound NOT metabolized | Compound NOT metabolized | Compound NOT metabolized | Compound NOT metabolized | Compound NOT metabolized | Compound NOT metabolized | Compound NOT metabolized | Compound NOT metabolized | Compound NOT metabolized | Compound NOT metabolized | Compound NOT metabolized | Compound NOT metabolized | Compound NOT metabolized | Compound NOT metabolized | Compound NOT metabolized | Compound NOT metabolized | Compound NOT metabolized | Compound NOT metabolized | Compound NOT metabolized | Compound NOT metabolized
CCN(CC)C(=O)C1(c2ccccc2)CC1CN (stereo not given) | Compound NOT metabolized | Compound NOT metabolized | Compound NOT metabolized | Compound NOT metabolized | Compound NOT metabolized | Compound NOT metabolized | Compound NOT metabolized | Compound NOT metabolized | Compound NOT metabolized | Compound NOT metabolized | Compound NOT metabolized | Compound NOT metabolized | Compound NOT metabolized | Compound NOT metabolized | Compound NOT metabolized | Compound NOT metabolized | Compound NOT metabolized | Compound NOT metabolized | Compound NOT metabolized | Compound NOT metabolized
